Counter-ions that a name gives are not always drawn.
Tests used:
[1] = tested on: PC12 cells; assay: PC12 cell serum withdrawal model, MTS cell survival assay; assay type: cell-based
Source text: Serum withdrawal is a cytotoxic environmental challenge that results in cell death in cultured cell lines as well as in primary cells of various tissue origins, including nerve cells. In particular, pheochromocytoma (PC) 12 cells have been widely employed as an in vitro neuronal cell model for a wide variety of neurodegenerative and cell death related disorders (Muriel, et al, Mitochondrial free calcium levels (Rhod-2 fluorescence) and ultrastructural alterations in neuronally differentiated PC12 cells during ceramide-dependent cell death, J. Comp. Neurol., 2000, 426(2), 297-315; Dermitzaki, et al, Opioids transiently prevent activation of apoptotic mechanisms following short periods of serum withdrawal, J. Neurochem., 2000, 74(3), 960-969; Carlile, et al, Reduced apoptosis after nerve growth factor and serum withdrawal: conversion of tetrameric glyceraldehyde-3-phosphate dehydrogenase to a dimer, Mol. Pharmacol., 2000, 57(1), 2-12). PC12 cells were cultured in sterile media (RPMI 1640) supplemented with 10% heat-inactivated horse serum and 5% fetal bovine serum (FBS). The culture medium also contained Penicillin-Streptomycin-Neomycin antibiotic (50 µg, 50 µg, 100 µg, respectively). Medium was exchanged every other day and the cells were passed in log phase near confluence.
The control cells were cultured in regular media without any treatment. An enantiomer of Formula 7 or Formula 8 (10 µM) was mixed well in the medium and then applied to the cells. For the 2 day assay, an enantiomer of Formula 7 or Formula 8 (10 µM) was only applied to the cells once at the time of serum withdrawal. For the 7 day assay, an enantiomer of Formula 7 or Formula 8 (10. mu.M) was applied to the cells at the time of serum withdrawal and every 48 hr thereafter when cells were changed with fresh new serum-free medium. In the serum withdrawal group, the cells were cultured in serum-free medium with no additional enantiomer of Formula 7 or Formula 8. Cell survival was determined by the 3-(4,5-dimethylthiazol-2-yl)-5-(3-[…])-2-(4-sulfophenyl)-2H-tetrazolium inner salt (MTS) assay at 2 or 7 days after serum withdrawal.
At the end of the experiment, cells were washed with fresh medium and incubated with MTS solution in a humidified 37° C. with 5% CO2 incubator for 1.5 hr. After the incubation period, the cells were immediately analyzed using a Softmax program (Molecular Devices). […] The assay is based on the cellular conversion of the tetrazolium salt, MTS, into a formazan that is soluble in tissue culture medium and measured directly at 490 nm in 96-well assay plates. The absorbance is directly proportional to the number of living cells in culture. The arbitrary absorbance reading in control cells is expressed as 100% survival rate.

[2] = tested on: transient cerebral ischemia middle cerebral artery occlusion (MCAO) rat model; assay: Transient cerebral ischemia middle cerebral artery occlusion (MCAO) rat model, infarct volume; assay type: in vivo; settings: MK 801 3 mg/kg i.p., N 12
Protocol: The enantiomer of Formula 7 (test compound) was investigated in the transient cerebral ischemia middle cerebral artery occlusion (MCAO) rat model (as described in Nagasawa H. and Kogure K., Stroke, 1989, 20, 1037; and, Zea Longa E., Weinstein P. R., Carlson S, and Cummins R., Stroke, 1989, 20, 84) using male Wistar rats at 10 and 100 mg/kg (i.v.). MK 801 (Dizocilpine maleate; CAS Registry number 77086-22-7, a commercially available neuroprotectant compound) was used as a positive control (3 mg/kg, i.p.).
Rats (n=12) were randomly allocated to one of four experimental groups and were anesthetized. Blood flow from the internal carotid artery, anterior cerebral artery and posterior cerebral artery into the middle cerebral artery was blocked by this procedure. One hour after blockage, animals were treated over a 1 hour period with vehicle (administered i.v. over the one hour period), control (administered as a single i.p. dose at the start of the one hour period) and two doses of the enantiomer of Formula 7 (administered i.v. over the one hour period). Two hours after blockage, reperfusion was performed.
The animals were sacrificed and […] coronal sections of each brain were prepared. One in every forty sections (i.e. every […]) from the front to the occipital cortex was used to quantify the extent of the cerebral lesion. Slides were prepared using sections stained (according to the Nissl procedure) with cresyl violet and were examined under a light microscope.
Regional ischemic surface areas in the coronal sections of individual rats were determined according to the presence of cells with morphological changes. The areas of neuronal injury or infarction were measured and then added. The cortex and striatum volume were calculated for each animal (total ischemic surface area×0.8 mm (thickness)).
The mean volumes (.+−.S.E.M.) for each animal randomly assigned to the four experimental groups were compared using one-way ANOVA (one way ANOVA is a statistical method which compares 3 or more unmatched groups) followed by Dunnett's t-test (both methods incorporated in Statview 512+software, BarinPower, Calabasas, Calif., USA).

Structure (SMILES)	2 Day Survival Rate ([1]; 10 µM applied once at serum withdrawal, MTS assay 2 days after serum withdrawal, control 100, serum-free 49.6)	7 Day Survival Rate ([1]; 10 µM at serum withdrawal and every 48 hr, MTS assay 7 days after serum withdrawal, control 100, serum-free 23.8)	Mean Infarct Volume ± S.E.M., Striatum ([2]; vehicle 79.4)	Mean Infarct Volume ± S.E.M., Cortex ([2]; vehicle 275.5)	Mean Infarct Volume ± S.E.M., Total Volume ([2]; vehicle 354.9)
NC(=O)OC[C@H](OC(N)=O)c1ccccc1Cl [Formula 8]	66.4 ± 5.4^1%	85.2 ± 0.6^2%			
C[C@]12N[C@H](Cc3ccccc31)c1ccccc12 [MK 801, Dizocilpine maleate, reference compound]			56.1 ± 5.3^2 mm^3	95.8 ± 24.5^1 mm^3	151.9 ± 28.7^1 mm^3

From patent publication US20090137652A1, “METHODS FOR NEUROPROTECTION” (priority 2005, published 2009)
